One may read the melting point as the temperature of the solid-liquid transition.

For 91 molecules, melting point results are on record in a melting point compilation (Tetko et al.; mined from patent text by program, amines drawn as free bases though some values may be those of a salt).

`O=C(O)CC(NC(=O)OCc1ccccc1)C(=O)CNS(=O)(=O)CCc1ccccc1` (stereo unspecified) displayed a melting point of 100 to 101 °C.
Molecule `Cc1cc(Cn2nc(-c3ccccc3)oc2=O)cc(C)c1O` came in with a melting point of 135 °C.
As for `CCOc1ccccc1COc1ccc2c(c1)C=C(C(=O)O)CCS2(=O)=O`, the melting point was in the range of 158 to 160 °C.
As for `CN(C)C(=O)n1nc2cc(Cl)ccc2c1N`, the figure is 178 to 180 °C.
Consider `COc1ccc(-c2cc3c(OC)cc(OC)cc3nc2OCC(=O)OCc2ccccc2)cc1`, for which the melting point fell in the range of 114 to 115 °C.
The molecule `CNC(=S)n1nc(Nc2ccccc2)nc1N` yielded a melting point of 196 to 198 °C.
On to `CCCCc1nc(SCC)c(C(=O)O)n1Cc1ccc(C(=O)O)cc1`, for which the melting point came out at 168 °C.
For the molecule `CCOC(=O)C(=C(C)N)c1nc(N)c([N+](=O)[O-])nc1Cl`, the melting point was in the range of 162 to 163 °C.
To `CCOC(=O)CN(C(=S)Nc1cc(Cl)ccc1C)c1ccccc1` belongs 148 to 150 °C.
For the molecule `O=C(C(=O)c1ccn(CC(F)(F)F)c1)c1cccc(Br)c1`, the melting point lay within 105 to 106 °C.
Molecule `CC(C)(C)c1cc(-c2nnc(NCCO)s2)cc(C(C)(C)C)c1O` gave a melting point of 212 to 214 °C.
For the molecule `CC(=O)Nc1nc(CCN2CCC(c3c[nH]c4ccccc34)CC2)cs1`, the melting point was in the range of 203 to 204 °C.
Consider `CN(C)CCNC(=O)c1ccc(OCc2ccc(-c3ccccc3)cc2)nc1`, for which the melting point is 151 to 154 °C.
Molecule `COc1ccc(C#N)nc1C` displayed a melting point of 114 to 116 °C.
The molecule `COc1cc(OCc2c(C)noc2C)c(C=CC(=O)c2ccc(C(=O)O)cc2)cc1-c1cccs1` displayed a melting point of 213 to 215 °C.
As for `CCCCCS(=O)(=O)NC(=O)/C=C/c1ccc(OCCCS(C)(=O)=O)cc1Oc1ncc(C(F)(F)F)cc1Cl`, the figure is 194 to 196 °C; as for `O=C(O)c1ccc(NCCCc2ccccc2)cc1`, 162 to 163 °C; as for `C[C@@H](Nc1ncnc2[nH]c(-c3ccc(CN)cc3)cc12)c1ccccc1`, 253 to 256 °C.
`CON=C(N)C1=Nc2ccc(Cl)cc2C(c2ccccc2F)=NC1` gave a melting point of 120 to 124 °C.
As for `CC(=O)Nc1ccc(C(=O)c2cc(-c3ccc(Cl)cc3)c(N3CCOCC3)s2)cc1`, the figure is 125 to 127 °C; as for `COc1ccc(Cl)cc1-c1c(N)c(=O)[nH]c2cc(Cl)cc(Cl)c12`, 284 to 287 °C; as for `COc1ccccc1[N+]1([O-])CCNCC1`, 157 to 160 °C.
To `CCOC(=O)c1c(C)cc2c(c1C)C(=O)O/C2=C\C#N` belongs 108 to 109 °C; to `CC(C)OC(=O)N1CCC(c2nc3cc(-c4ccc(C(=O)NC5CC5)c(F)c4)ccc3o2)CC1`, 162 to 165 °C.
In turn, `CCOC(=O)C1=C(C)NC(C)=C(C(=O)OCC)C1c1ccccc1/C=C/c1ccc(OC)cc1` came in with a melting point of 179 to 181 °C.
The molecule `CCCCc1cc(NCc2ccc(-c3ccccc3C#N)cc2)n2nccc2n1` came in with a melting point of 200 to 202 °C.
`CCCc1c(O)ccc2ccc(C(=O)OCC)cc12` returned a melting point of 114 to 115 °C.
In turn, `O=C(O)c1ccc(Cl)c2c1OC(F)(F)O2` registered a melting point of 185 °C.
As for `CC(=O)c1cc(N2CCOCC2)ccc1NC(=O)c1cccc2c1OCO2`, the figure is 150 to 152 °C; as for `CCOC(=O)c1c(CN(CC)CC)nc2sc3c(c2c1-c1ccc(Cl)cc1)CCNC3`, 104 to 106 °C.
In the case of `Nc1nc2ccccc2c2c1ncn2COCCO`, the melting point lay within 210 to 212 °C.
Molecule `CC(O)(C#CCCO)c1ccc(-c2ccc(Cl)cc2)cc1` (stereo unspecified) displayed a melting point of 105 °C.
To `CC1(C)C[C@H]2c3cccc4c3N(CCNC4)[C@H]2C1` belongs 155 to 157 °C; to `NC(=O)Nc1nc2c(s1)-c1c(cnn1-c1ccccc1)CC2`, 321 to 325 °C.
On to `CSCc1cn(C)c2ccccc2c1=O`, for which the melting point fell in the range of 118 to 120 °C.
As for `CCCCN/C(=C1/Sc2ccccc2C1=O)c1ccccc1`, the melting point lay in the range of 106 to 107 °C.
`CN(C)C(=C(C#N)C#N)N(C)N=Cc1ccccc1` showed a melting point of 127 to 128 °C.
To `C=CCONC(=O)c1c(Cl)nn(C)c1Cl` belongs 96 to 97 °C; to `O=[N+]([O-])c1cn2c(n1)OC[C@@H](OCc1cnc(Cl)cn1)C2`, 181 to 183 °C; to `CCCN1CC(c2ccc(S(C)(=O)=O)cc2)=C(c2cccc(C)c2)C1=O`, 120 to 122 °C.
The molecule `CC1(C)CC2(CC(c3ccc(F)cc3)=C1/C=C/[C@H]1C[C@H](O)CC(=O)O1)OCCO2` (relative stereo) showed a melting point of 142 to 144 °C.
`CCSc1cccc(OC(F)(F)F)c1S(=O)(=O)NC(=O)c1noc(C)n1` had a melting point of 111 °C.
As for `C=C(C=O)c1ccc(Cl)cc1[N+](=O)[O-]`, the figure is 87 to 88 °C; as for `CN(C1CC(C)(C)NC(C)(C)C1)C1CC(C)(C)NC(C)(C)C1`, 51 to 53 °C.
For `O=S1(=O)N=C(O)C(O)=N1`, the melting point is 171 to 172 °C.
For the molecule `O=[N+]([O-])c1ccc(Cn2ccnn2)cc1`, the melting point fell in the range of 112 to 113 °C.
Regarding `CN1CCN(Cc2ccccc2)CC(NC(=O)c2n[nH]c3ccccc23)C1` (stereo unspecified), the melting point is 192 to 194 °C.
`COc1ccc2c(c1)C(=O)C(=CCC(=O)OC(C)(C)C)CC2` had a melting point of 76 °C.
`CCCC(=O)N1CCc2nc3ccccc3c(C)c2CC1` came in with a melting point of 130 °C.
To `COc1ccc(-c2cccc(C(N)=O)c2)cc1OC1CCCC1` belongs 133 to 135 °C; to `CC1CCCc2cc([N+](=O)[O-])cnc21` (stereo unspecified), 61 to 63 °C.
To `Cc1cccc(S(=O)(=O)N2CCCC2c2ccc(F)cc2)c1` (racemic) belongs 102 °C; to `Cc1nc2c(OCc3ccccc3)nccn2c1C`, 104 to 110 °C.
Take `Nc1nc(-c2ccc(Cl)cc2)nc(N2CCCC2)n1`: the melting point fell in the range of 217 to 219 °C.
To `CCC(=O)c1cc(OCc2ccccc2)c(OC)cc1[N+](=O)[O-]` belongs 120 to 123 °C.
In the case of `Cc1c(C(=O)Nc2ccc(Oc3ccccc3)c(C#N)c2)cnn1-c1ccc(F)cc1`, the melting point is 182 to 183 °C.
In turn, `Nc1cc(N2CC(COCc3ccccc3)OC2=O)ccn1` (stereo unspecified) returned a melting point of 122 to 123 °C.
Regarding `Cn1c(=O)c(-c2c(Cl)cccc2Cl)cc2cnc(Nc3ccc(Cl)cc3)nc21`, the melting point was in the range of 255 to 256 °C.
`O=C(NC1CC2C=CC1C2)n1cc(F)c(=O)[nH]c1=O` (stereo unspecified) showed a melting point of 180 °C.
In turn, `Cn1c(=O)nc(-c2ccccc2F)c2c3c(sc21)CCCC3` had a melting point of 221 to 222 °C.
To `CN1CCN(C(=S)Nc2cc3sc(C(C)(C)C)nc3cc2N2CCN(C)CC2)CC1` belongs 190 to 193 °C; to `CC(C)(C)c1cc(N)n(-c2c(Cl)cc(C(F)(F)F)cc2Cl)n1`, 110 to 120 °C; to `CN(C)C(=O)Nc1c(Cl)cc2c(c1Cl)C(c1ccccc1F)=NCC(=O)N2C`, 145 to 147 °C.
`CC(C)n1cc(C(=O)O)c2ccc(Br)cc21` came in with a melting point of 207 to 209 °C.
In turn, `CCCCCCCCCCCCc1nnn(C(CCCCCCCCCCCC)C(=O)O)n1` (stereo unspecified) came in with a melting point of 57 to 59 °C.
As for `CCOC(=O)c1c(O)n(CC)c2cc(-c3ccncc3)ccc2c1=O`, the figure is 153 to 157 °C; as for `COCCC(=O)N[C@H]1CC[C@H](CCN2CCN(c3nccc4ccoc34)CC2)CC1`, 146 °C.
As to `O=C(Nc1ccccc1S(=O)(=O)N1CCCCC1)N[C@@H](Cc1ccc(Nc2nccc3cnccc23)cc1)C(=O)O`, the melting point worked out at 207 °C.
As for `O=C(c1ccc(O)cc1)c1ccc(O)c(Cl)c1Cl`, the figure is 208 to 210 °C; as for `COP(=O)(Cc1cc(C(C)(C)C)c(O)c(C(C)(C)C)c1)c1ccccc1` (stereo unspecified), 112 to 114 °C; as for `CC(C)OCC(C)Oc1ccc(COc2cnn(C(C)(C)C)c(=O)c2Cl)cc1` (stereo unspecified), 60 to 62 °C.
As for `CCCN(CCCCNC(=O)NC1Cc2ccccc2C1)C1CCc2ncsc2C1` (stereo unspecified), the melting point worked out at 93 °C.
`C=C(C)C(=O)OCc1c(Br)c(Br)c(Br)c(COC(=O)C(=C)C)c1Br` came in with a melting point of 97 to 99 °C.
The molecule `COc1ccc2c(ccn3c(C(F)(F)F)nnc23)c1` showed a melting point of 214 to 215 °C.
As for `CC(=O)OC1CCCc2cnc3ccccc3c21` (stereo unspecified), the melting point is 128 to 129 °C.
`COc1ccc(-c2c(Cl)c(CN3C(=O)CCC3=O)nc3sc4c(c23)CCNC4)cc1OC` yielded a melting point of 250 to 252 °C.
Consider `COc1cc(C(=O)O)ccc1Cc1csc2ccc(NC(=O)OC3CCCC3)cc12`, for which the melting point lay within 259 to 261 °C.
For `COC(=O)c1cc(C=O)c(C(F)(F)F)cc1NC(C)=O`, the melting point was in the range of 106 to 108 °C.
To `CC[C@@H](O)C1(c2onc(-c3ccc(O)cc3)c2-c2ccccc2)CC1` belongs 163 to 164 °C.
As for `O=C1Nc2cccnc2N(C(=O)CCN2CCNCC2)c2ccccc21`, the melting point was 280 to 282 °C.
To `Nc1cccc(-c2ccc(CCN3CCN(CCc4ccc(F)cc4)CC3)cc2)n1` belongs 165 to 167 °C.
To `CCCCC1OC(=O)c2cc([N+](=O)[O-])ccc21` (stereo unspecified) belongs 53 to 55 °C.
Molecule `CNC(=S)SCCC(=O)O` gave a melting point of 86 to 87 °C.
Turning to `CC1(C)Oc2ccc(C#N)cc2[C@@H](N2CCCC2)[C@@H]1O` (relative stereo), the melting point was in the range of 173 to 174 °C.
Consider `CCCc1c(C#N)c(-c2ccc(C#N)cc2)c(C)n1Cc1cnc(Cl)c(CO)c1`, for which the melting point was in the range of 137 to 138 °C.
To `CCCC[C@H]1CC[C@H](C(=O)O)CC1` belongs 37 to 39 °C.
For `CS(=O)(=O)Nc1cc(C(=O)c2ccccc2)ccc1N`, the melting point is 184 to 186 °C.
`CCN(CCNC(=O)c1ccc2ccccc2c1)C1CCc2ncsc2C1` (stereo unspecified): the melting point came to 110 °C.
`CCOP(=O)(CCN1CCC(N(CCN)S(=O)(=O)c2ccc(Nc3nccc(Nc4ccc(F)c(F)c4)n3)cc2)CC1)OCC` yielded a melting point of 88 to 90 °C.
For `FC(F)(F)c1ccccc1OCCCc1cn(C(c2ccccc2)(c2ccccc2)c2ccccc2)cn1`, the melting point fell in the range of 204 to 208 °C.
As for `Cc1ccccc1Cn1c(OCc2ccccc2)noc1=O`, the melting point lay in the range of 77 to 78 °C.
